# In patent publication US20090093517A1, “BIS1,2,3,4-TETRAHYDROISOQUINOLINE DERIVATIVES AND THEIR USES AS PHARMACEUTICALS” (UNIVERSITE DE LIEGE, priority 2006, published 2009):
# Structures can show the parent of a compound that is named as a salt.
# System: apamin-sensitive sites of the SK channels
# Test: Competition binding between 125I-apamin and bis-tetrahydroisoquinoline derivatives on rat cortical synaptosomes
# Settings: for % of 125I-apamin displaced at 10 μM: 10 μM compound, ±10 pM 125I-apamin, rat cortical synaptosomes, 1 h at 0° C.; for Ki: separated stereoisomers, rat cortical apamin sensitive sites, 125I-apamin; for Ki / potential to interact with apamin-sensitive sites compared with NML: comparison in words with N-Methyl-Laudanosine
# Procedure: These experiments are used to evaluate the potency of the bis-tetrahydroisoquinoline derivatives to interact with the apamin-sensitive sites of the SK channels, the selected target for which a blockade is expected to be useful in the treatment of Alzheimer's disease, Parkinson's disease, schizophrenia, cognitive dysfunction, or depression. Two reference compounds are also tested for comparison
# Rats (male Wistar, ±250 g) were killed by decapitation and the brains were quickly removed and kept on ice during dissection. Crude cortex was dispersed in 0.32 M sucrose by using a Pottero homogenizer. After a first centrifugation at 1500×g for 10 min, the supernatant was centrifuged at 25000×g for 10 min. The resulting pellet was dispersed in 5 mL 0.32 M sucrose to be aliquoted. Protein concentration was determined by the method of Hartree with bovine serum albumin as a standard.^36
# The buffer consisted of a 10 mM Tris-HCl (pH 7.5) solution containing 5.4 mM KCl and 0.1% bovine serum albumin. The radioligand was ^125I-apamin (Perkin-Elmer, Specific activity 81.4 TBq mmol^−1). Glass fibre filters (Whatman GF/C) used in these experiments were coated for 1 h in 0.5% polyethylenimine and then washed with 2.5 mL of the ice-cold buffer just before use. Binding experiments were always terminated as follows. Aliquots were filtered under reduced pressure through Whatman filters. Filters were rapidly washed twice with 2.5 mL of buffer. The radioactivity remaining on the filter was evaluated with a Packard Tri-Carb 1600TR liquid scintillation analyser with an efficacy of 69%. ^125I-apamin binding to the filters was also estimated in the absence of synaptosomes. This binding was also substracted from the total binding. Curve fitting was carried out using GraphPad Prism.
# Saturation Binding Experiments—Synaptosomes (0.2 mg of protein/mL) were incubated with increasing concentrations of ^125I-apamin (25 μL) with 975 μL of incubation buffer for 1 h at 0° C. Samples were then filtered on Whatman GF/C filter and the radioactivity was measured as described above. Non specific binding was determined in parallel experiments in the presence of an excess of unlabeled apamin (0.1 μM) and subtracted from the total binding to obtain the specific binding.
# Competition Experiments between ^125I-apamin and Bis-tetrahydroisoquinoline derivatives—Synaptosomes (0.2 mg of protein/mL) were incubated for 1 h at 0° C. with ±10 pM of ^125I-apamin (25 μL) and nine concentrations of bis-tetrahydroisoquinoline derivatives (10^−4 to 10^−7 M). Non specific binding was determined in the presence of an excess of unlabeled apamin (0.1 μM). Samples were then filtered on Whatman filter and the radioactivity was measured as described above.
compound,measurement,setting,value
"CN1CCc2ccccc2C1CCCCCC1c2ccccc2CCN1C.Cl (stereo not drawn) [Compound 4c, 1,5-bis[1-(2-methyl-1,2,3,4-tetrahydroisoquinolyl)]-pentane hydrochloride]",% of 125I-apamin displaced at 10 μM,,9%
"COc1cc2c(cc1OC)C(CCCCC1c3cc(OC)c(OC)cc3CCN1C)N(C)CC2 (stereo not drawn) [Compound 4e MESO, 1,4-bis[1-(6,7-dimethoxy-2-methyl-1,2,3,4-tetrahydroisoquinolyl)]-butane hydrochloride]",Ki,"listed as 4e MESO, hydrochloride",1070 ± 124 nM
COc1cc2c(cc1OC)C(Cc1cccc(CC3c4cc(OC)c(OC)cc4CCN3C)c1)N(C)CC2 (stereo not drawn) [Compound 4m E2],Ki,listed as 4m E2,1020 ± 27 nM
"COc1cc2c(c(OC)c1OC)C(CCCCC1c3c(cc(OC)c(OC)c3OC)CCN1C)N(C)CC2 (stereo not drawn) [Compound 4h E1, 1,4-bis[1-(6,7,8-trimethoxy-2-methyl-1,2,3,4-tetrahydroisoquinolyl)]-butane hydrochloride]",Ki,"listed as 4h E1, hydrochloride",2210 ± 156 nM
"COc1cc2c(c(OC)c1OC)C(CCCCC1c3c(cc(OC)c(OC)c3OC)CCN1C)N(C)CC2 (stereo not drawn) [Compound 4h E2, 1,4-bis[1-(6,7,8-trimethoxy-2-methyl-1,2,3,4-tetrahydroisoquinolyl)]-butane hydrochloride]",Ki,"listed as 4h E2, hydrochloride",746 ± 136 nM
"COc1cc2c(cc1OC)C(Cc1ccc(CC3c4cc(OC)c(OC)cc4CCN3C)cc1)N(C)CC2 (stereo not drawn) [Compound 4o, p-bis[1-(6,7-dimethoxy-2-methyl-1,2,3,4-tetrahydroisoquinolyl)]-xylene]",% of 125I-apamin displaced at 10 μM,,90%
"CN1CCc2ccccc2C1CCCC1c2ccccc2CCN1C.Cl (stereo not drawn) [Compound 4a, 1,3-bis[1-(2-methyl-1,2,3,4-tetrahydrolisoquinolyl)]-propane hydrochloride]",% of 125I-apamin displaced at 10 μM,,13%
"o-bis[1-(6,7-dimethoxy-2-methyl-1,2,3,4-tetrahydroisoquinolyl)]-xylene hydrochloride [Compound 4m]",% of 125I-apamin displaced at 10 μM,,62%
"COc1cc2c(c(OC)c1OC)C(CCCCC1c3c(cc(OC)c(OC)c3OC)CCN1C)N(C)CC2.Cl (stereo not drawn) [Compound 4h MESO, 1,4-bis[1-(6,7,8-trimethoxy-2-methyl-1,2,3,4-tetrahydroisoquinolyl)]-butane hydrochloride]",Ki / potential to interact with apamin-sensitive sites compared with NML,,Ki superior to NML
same,Ki,"listed as 4h MESO, hydrochloride",424 ± 33 nM
"COc1ccc(C[C@H]2c3cc(OC)c(OC)cc3CC[N+]2(C)C)cc1OC [NML, N-methyl-laudanosine, reference compound]",% of 125I-apamin displaced at 10 μM,,54%
"COc1cc2c(cc1OC)C(CCCC1c3cc(OC)c(OC)cc3CCN1C)N(C)CC2 (stereo not drawn) [Compound 4d E2, 1,3-bis[1-(6,7-dimethoxy-2-methyl-1,2,3,4-tetrahydroisoquinolyl)]-propane hydrochloride]",Ki,"listed as 4d E2, hydrochloride",1880 ± 105 nM
"o-bis[1-(6,7,8-trimethoxy-2-methyl-1,2,3,4-tetrahydroisoquinolyl)]-xylene hydrochloride [Compound 4p]",% of 125I-apamin displaced at 10 μM,,28%
COc1cc2c(cc1OC)[C@@H](Cc1ccc(C[C@H]3c4cc(OC)c(OC)cc4CCN3C)cc1)N(C)CC2 [Compound 4n MESO],Ki,,566 ± 26 nM
COc1cc2c(cc1OC)C(Cc1cccc(CC3c4cc(OC)c(OC)cc4CCN3C)c1)N(C)CC2 (stereo not drawn) [Compound 4m E1],Ki,listed as 4m E1,1280 ± 55 nM
COc1cc2c(cc1OC)C(Cc1ccc(CC3c4cc(OC)c(OC)cc4CCN3C)cc1)N(C)CC2 (stereo not drawn) [Compound 4n E2],Ki,listed as 4n E2,1120 ± 46 nM
"p-bis[1-(2-methyl-1,2,3,4-tetrahydroisoquinolyl)]-xylene hydrochloride [Compound 4l]",% of 125I-apamin displaced at 10 μM,,27%
"m-bis[1-(6,7,8-trimethoxy-2-methyl-1,2,3,4-tetrahydroisoquinolyl)]-xylene hydrochloride [Compound 4q]",% of 125I-apamin displaced at 10 μM,,60%
"COc1cc2c(cc1OC)C(CCCCCC1c3cc(OC)c(OC)cc3CCN1C)N(C)CC2.Cl (stereo not drawn) [Compound 4f E1, 1,5-bis[1-(6,7-dimethoxy-2-methyl-1,2,3,4-tetrahydroisoquinolyl)]-pentane hydrochloride]",Ki / potential to interact with apamin-sensitive sites compared with NML,,Ki superior to NML
same,Ki,"listed as 4f E1, hydrochloride",592 ± 14 nM
"COc1cc2c(c(OC)c1OC)C(CCCC1c3c(cc(OC)c(OC)c3OC)CCN1C)N(C)CC2 (stereo not drawn) [Compound 4g E2, 1,3-bis[1-(6,7,8-trimethoxy-2-methyl-1,2,3,4-tetrahydroisoquinolyl)]-propane hydrochloride]",Ki,"listed as 4g E2, hydrochloride",1100 ± 103 nM
"COc1cc2c(cc1OC)C(CCCCC1c3cc(OC)c(OC)cc3CCN1C)N(C)CC2.Cl (stereo not drawn) [Compound 4e, 1,4-bis[1-(6,7-dimethoxy-2-methyl-1,2,3,4-tetrahydroisoquinolyl)]-butane hydrochloride]",% of 125I-apamin displaced at 10 μM,,72%
"COc1cc2c(c(OC)c1OC)C(CCCC1c3c(cc(OC)c(OC)c3OC)CCN1C)N(C)CC2.Cl (stereo not drawn) [Compound 4g, 1,3-bis[1-(6,7,8-trimethoxy-2-methyl-1,2,3,4-tetrahydroisoquinolyl)]-propane hydrochloride]",% of 125I-apamin displaced at 10 μM,,70%
"m-bis[1-(6,7-dimethoxy-2-methyl-1,2,3,4-tetrahydroisoquinolyl)]-xylene hydrochloride [Compound 4n]",% of 125I-apamin displaced at 10 μM,,74%
"COc1cc2c(cc1OC)[C@@H](CCC[C@H]1c3cc(OC)c(OC)cc3CCN1C)N(C)CC2 [Compound 4d MESO, 1,3-bis[1-(6,7-dimethoxy-2-methyl-1,2,3,4-tetrahydroisoquinolyl)]-propane hydrochloride]",Ki,,1420 ± 116 nM
"COc1cc2c(c(OC)c1OC)C(CCCC1c3c(cc(OC)c(OC)c3OC)CCN1C)N(C)CC2 (stereo not drawn) [Compound 4g E1, 1,3-bis[1-(6,7,8-trimethoxy-2-methyl-1,2,3,4-tetrahydroisoquinolyl)]-propane hydrochloride]",Ki,"listed as 4g E1, hydrochloride",1740 ± 195 nM
"m-Bis[1-(2-methyl-1,2,3,4-tetrahydroisoquinolyl)]-xylene hydrochloride [Compound 4k]",% of 125I-apamin displaced at 10 μM,,29%
"Cc1cc(N)c2ccccc2[n+]1CCCCCCCCCC[n+]1c(C)cc(N)c2ccccc21 [DQ+, Dequalinium, reference compound]",Ki,,221 ± 11 nM
"p-bis[1-(6,7,8-trimethoxy-2-methyl-1,2,3,4-tetrahydroisoquinolyl)]-xylene [Compound 4r]",% of 125I-apamin displaced at 10 μM,,51%
"COc1cc2c(cc1OC)C(CCCC1c3cc(OC)c(OC)cc3CCN1C)N(C)CC2.Cl (stereo not drawn) [Compound 4d, 1,3-bis[1-(6,7-dimethoxy-2-methyl-1,2,3,4-tetrahydroisoquinolyl)]-propane hydrochloride]",% of 125I-apamin displaced at 10 μM,,82%
"COc1cc2c(cc1OC)C(CCCCC1c3cc(OC)c(OC)cc3CCN1C)N(C)CC2 (stereo not drawn) [Compound 4e E2, 1,4-bis[1-(6,7-dimethoxy-2-methyl-1,2,3,4-tetrahydroisoquinolyl)]-butane hydrochloride]",Ki,"listed as 4e E2, hydrochloride",1200 ± 114 nM
"COc1cc2c(cc1OC)C(CCCCCC1c3cc(OC)c(OC)cc3CCN1C)N(C)CC2 (stereo not drawn) [Compound 4f MESO, 1,5-bis[1-(6,7-dimethoxy-2-methyl-1,2,3,4-tetrahydroisoquinolyl)]-pentane hydrochloride]",Ki,"listed as 4f MESO, hydrochloride",731 ± 63 nM
"CN1CCc2ccccc2C1CCCCC1c2ccccc2CCN1C.Cl (stereo not drawn) [Compound 4b, 1,4-bis[1-(2-methyl-1,2,3,4-tetrahydroisoquinolyl)]-butane hydrochloride]",% of 125I-apamin displaced at 10 μM,,16%
